Experimental data: US9446088B2, “Preparation and use of a plant extract from solanum glaucophyllum with an enriched content of 1,25 dihydroxyvitamin D3 glycosides and quercetin glycosides” (HERBONIS AG, priority 2008, dated 2016)

Legend:
[1] = tested on: commercial broiler chickens; assay: Broiler experiment for leg anomalies (tibial dyschondroplasia); type: in vivo; parameters: dose or concentration left out as unconfirmed; conditions: after day 14 of treatment
Method: In experiment 2, male one-day old broiler chickens were fed a commercial diet containing 1,000 IUD/kg feed of vitamin D3 ad libitum. […] 76.8 μg 1,25-Dihydroxyvitamin D3 (determined after in vitro hydrolysis of the extract).

[2] = tested on: Japanese quails (Coturnix japonica) on Vitamin D-deficient diet; assay: Japanese quail eggshell bioassay for vitamin D activity; type: in vivo
From the text: From Rambeck et al. (see Rambeck et al, Ann. Nutr. Metab. 30, 9-14, (1986)) it is known that the quail egg shell assay is used as a simple bioassay to assess Vitamin D activity. According to this assay, Japanese quails (Coturnix japonica) of egg laying age and selected for a laying performance of >80% were set on a Vitamin D-deficient diet containing all other nutrients in optimal amounts. After approximately 8 days, the laying performance as the most sensitive marker dropped below 10%. Then, the test animals were randomly divided into groups of 10 animals and the diet was changed to the same diet, but supplemented with the substance to be tested. Laying performance was monitored for 21 days together with other markers of vitamin D-metabolism, such as alkaline phosphatase and calcium in plasma.
In Experiment 1 three groups of quails received 100, 200 and 400 international units of vitamin D3 per kg feed, 5 groups received 2, 8, 32, 128 and […] purified plant extract and one group was given synthetic 1, 25-Dihydroxyvitamin D3 (1 μg/kg feed) and another group received ground dried leaves of Solanum glaucophyllum (1000 mg/kg feed).

## C=C1/C(=C\C=C2/CCC[C@]3(C)[C@@H]([C@H](C)CCCC(C)(C)O)CC[C@@H]23)C[C@@H](O)C[C@@H]1O [Synthetic 1,25(OH)2D3, 1,25-dihydroxyvitamin D3]
[1]
  Healthy animals. (%): 92.9 b %
  Occurrence of TD (%): 3.55 *b %
  Occurrence of other leg anomalies (%): 3.55 b %
[2]; 1 μg per kg feed
  Eggshell weight (ESW) per day and animal, days 5-21: 0.502 g
[2]; 1.0 μg/kg feed
  Average egg weight between day 1 and 21: 10.58 g
  Egg weight in % of standard group Vitamin D3 400 IUD/kg feed: 99%

## C=C1CC[C@H](O)C/C1=C/C=C1\CCC[C@]2(C)[C@@H]([C@H](C)CCCC(C)C)CC[C@@H]12 [Vitamin D3, cholecalciferol]
[2]; 100 IUD per kg feed
  Eggshell weight (ESW) per day and animal, days 5-21: 0.231 g
[2]; 100 IUD/kg feed
  Average egg weight between day 1 and 21: 9.61 g
  Egg weight in % of standard group Vitamin D3 400 IUD/kg feed: 90%
[2]; 200 IUD per kg feed
  Eggshell weight (ESW) per day and animal, days 5-21: 0.434 g
[2]; 200 IUD/kg feed
  Average egg weight between day 1 and 21: 10.40 g
  Egg weight in % of standard group Vitamin D3 400 IUD/kg feed: 97%
[2]; 400 IUD per kg feed
  Eggshell weight (ESW) per day and animal, days 5-21: 0.738 g
[2]; 400 IUD/kg feed
  Average egg weight between day 1 and 21: 10.70 g
[2]; onset of egg laying
  time by which laying performance passed 50% after beginning of treatment: 48 to 72 h
